From BigSolDB 2.1

CCCCN(CCCC)c1ccc(C(=O)c2ccccc2C(=O)O)c(O)c1
solubility (mole fraction) (in acetone, 283.15 K): 0.015 | solubility (mole fraction) (in acetone, 288.15 K): 0.0171 | solubility (mole fraction) (in acetone, 293.15 K): 0.0196 | solubility (mole fraction) (in acetone, 298.15 K): 0.0216 | solubility (mole fraction) (in acetone, 303.15 K): 0.0251 | solubility (mole fraction) (in acetone, 308.15 K): 0.0291 | solubility (mole fraction) (in acetone, 313.15 K): 0.033 | solubility (mole fraction) (in acetone, 318.15 K): 0.0386 | solubility (mole fraction) (in acetone, 323.15 K): 0.0436 | solubility (mole fraction) (in acetonitrile, 283.15 K): 0.000701 | solubility (mole fraction) (in acetonitrile, 288.15 K): 0.000848 | solubility (mole fraction) (in acetonitrile, 293.15 K): 0.00113 | solubility (mole fraction) (in acetonitrile, 298.15 K): 0.00138 | solubility (mole fraction) (in acetonitrile, 303.15 K): 0.0018 | solubility (mole fraction) (in acetonitrile, 308.15 K): 0.00227 | solubility (mole fraction) (in acetonitrile, 313.15 K): 0.00284 | solubility (mole fraction) (in acetonitrile, 318.15 K): 0.00363 | solubility (mole fraction) (in acetonitrile, 323.15 K): 0.00444 | solubility (mole fraction) (in dichloromethane, 283.15 K): 0.0128 | solubility (mole fraction) (in dichloromethane, 288.15 K): 0.0141 | solubility (mole fraction) (in dichloromethane, 293.15 K): 0.0157 | solubility (mole fraction) (in dichloromethane, 298.15 K): 0.0183 | solubility (mole fraction) (in dichloromethane, 303.15 K): 0.0214 | solubility (mole fraction) (in dichloromethane, 308.15 K): 0.0251 | solubility (mole fraction) (in ethanol, 283.15 K): 0.00193 | solubility (mole fraction) (in ethanol, 288.15 K): 0.00252 | solubility (mole fraction) (in ethanol, 293.15 K): 0.00334 | solubility (mole fraction) (in ethanol, 298.15 K): 0.00422 | solubility (mole fraction) (in ethanol, 303.15 K): 0.00529 | solubility (mole fraction) (in ethanol, 308.15 K): 0.00641 | solubility (mole fraction) (in ethanol, 313.15 K): 0.0082 | solubility (mole fraction) (in ethanol, 318.15 K): 0.0102 | solubility (mole fraction) (in ethanol, 323.15 K): 0.013 | solubility (mole fraction) (in ethyl acetate, 283.15 K): 0.0043 | solubility (mole fraction) (in ethyl acetate, 288.15 K): 0.00516 | solubility (mole fraction) (in ethyl acetate, 293.15 K): 0.00606 | solubility (mole fraction) (in ethyl acetate, 298.15 K): 0.00698 | solubility (mole fraction) (in ethyl acetate, 303.15 K): 0.00782 | solubility (mole fraction) (in ethyl acetate, 308.15 K): 0.009 | solubility (mole fraction) (in ethyl acetate, 313.15 K): 0.00995 | solubility (mole fraction) (in ethyl acetate, 318.15 K): 0.0112 | solubility (mole fraction) (in ethyl acetate, 323.15 K): 0.0126 | solubility (mole fraction) (in isopropanol, 283.15 K): 0.00178 | solubility (mole fraction) (in isopropanol, 288.15 K): 0.00232 | solubility (mole fraction) (in isopropanol, 293.15 K): 0.00302 | solubility (mole fraction) (in isopropanol, 298.15 K): 0.0039 | solubility (mole fraction) (in isopropanol, 303.15 K): 0.00508 | solubility (mole fraction) (in isopropanol, 308.15 K): 0.00667 | solubility (mole fraction) (in isopropanol, 313.15 K): 0.00886 | solubility (mole fraction) (in isopropanol, 318.15 K): 0.0117 | solubility (mole fraction) (in isopropanol, 323.15 K): 0.0147 | solubility (mole fraction) (in isopropyl acetate, 283.15 K): 0.00415 | solubility (mole fraction) (in isopropyl acetate, 288.15 K): 0.00485 | solubility (mole fraction) (in isopropyl acetate, 293.15 K): 0.00544 | solubility (mole fraction) (in isopropyl acetate, 298.15 K): 0.00624 | solubility (mole fraction) (in isopropyl acetate, 303.15 K): 0.00715 | solubility (mole fraction) (in isopropyl acetate, 308.15 K): 0.00815 | solubility (mole fraction) (in isopropyl acetate, 313.15 K): 0.00901 | solubility (mole fraction) (in isopropyl acetate, 318.15 K): 0.00991 | solubility (mole fraction) (in isopropyl acetate, 323.15 K): 0.011 | solubility (mole fraction) (in methanol, 283.15 K): 0.00164 | solubility (mole fraction) (in methanol, 288.15 K): 0.00194 | solubility (mole fraction) (in methanol, 293.15 K): 0.00238 | solubility (mole fraction) (in methanol, 298.15 K): 0.00292 | solubility (mole fraction) (in methanol, 303.15 K): 0.0037 | solubility (mole fraction) (in methanol, 308.15 K): 0.0047 | solubility (mole fraction) (in methanol, 313.15 K): 0.00617 | solubility (mole fraction) (in methanol, 318.15 K): 0.00811 | solubility (mole fraction) (in methanol, 323.15 K): 0.0111 | solubility (mole fraction) (in n-butyl acetate, 283.15 K): 0.00418 | solubility (mole fraction) (in n-butyl acetate, 288.15 K): 0.00493 | solubility (mole fraction) (in n-butyl acetate, 293.15 K): 0.00556 | solubility (mole fraction) (in n-butyl acetate, 298.15 K): 0.00639 | solubility (mole fraction) (in n-butyl acetate, 303.15 K): 0.00727 | solubility (mole fraction) (in n-butyl acetate, 308.15 K): 0.00824 | solubility (mole fraction) (in n-butyl acetate, 313.15 K): 0.00952 | solubility (mole fraction) (in n-butyl acetate, 318.15 K): 0.0109 | solubility (mole fraction) (in n-butyl acetate, 323.15 K): 0.0123 | solubility (mole fraction) (in n-heptane, 283.15 K): 1.5e-05 | solubility (mole fraction) (in n-heptane, 288.15 K): 1.8e-05 | solubility (mole fraction) (in n-heptane, 293.15 K): 2.3e-05 | solubility (mole fraction) (in n-heptane, 298.15 K): 2.7e-05 | solubility (mole fraction) (in n-heptane, 303.15 K): 3.3e-05 | solubility (mole fraction) (in n-heptane, 308.15 K): 3.8e-05 | solubility (mole fraction) (in n-heptane, 313.15 K): 4.3e-05 | solubility (mole fraction) (in n-heptane, 318.15 K): 4.8e-05 | solubility (mole fraction) (in n-heptane, 323.15 K): 5.2e-05 | solubility (mole fraction) (in n-propanol, 283.15 K): 0.0165 | solubility (mole fraction) (in n-propanol, 288.15 K): 0.0212 | solubility (mole fraction) (in n-propanol, 293.15 K): 0.0258 | solubility (mole fraction) (in n-propanol, 298.15 K): 0.0321 | solubility (mole fraction) (in n-propanol, 303.15 K): 0.0399 | solubility (mole fraction) (in n-propanol, 308.15 K): 0.0496 | solubility (mole fraction) (in n-propanol, 313.15 K): 0.062 | solubility (mole fraction) (in n-propanol, 318.15 K): 0.0773 | solubility (mole fraction) (in n-propanol, 323.15 K): 0.0958 | solubility (mole fraction) (in n-propyl acetate, 283.15 K): 0.0037 | solubility (mole fraction) (in n-propyl acetate, 288.15 K): 0.00454 | solubility (mole fraction) (in n-propyl acetate, 293.15 K): 0.00547 | solubility (mole fraction) (in n-propyl acetate, 298.15 K): 0.00631 | solubility (mole fraction) (in n-propyl acetate, 303.15 K): 0.00738 | solubility (mole fraction) (in n-propyl acetate, 308.15 K): 0.00846 | solubility (mole fraction) (in n-propyl acetate, 313.15 K): 0.00983 | solubility (mole fraction) (in n-propyl acetate, 318.15 K): 0.0115 | solubility (mole fraction) (in n-propyl acetate, 323.15 K): 0.0129
